Laboratory results taken from patent publication US20160297828A1, “SPIROCYCLIC COMPOUNDS CONTAINING SPIRO[INDOLYL-3,1'-PYRROLO[3,4-C]PYRROLE] CORE AND SULPHUR-CONTAINING AMINO ACID RESIDUES” (priority 2013, published 2016).
Several values for one entry are separate records, joined by “and”; a condition that tells them apart may be missing. Identical values can stand only once. Marks after values point to notes of the source that are not given here.

How the values were obtained:
Type in all cases: in vivo
[1] = test system: rats with intracerebral hemorrhage; assay: Neurological deficit (C. P. McGrow stroke-index scale) in rats with intracerebral hemorrhage; conditions: n = 15
Protocol: Neuroprotective effect of 3,2′-spiro-pyrrolo-2-oxindole derivative (SI-86 compound) was studied on IUD model of moderate severity modeled under propofol anesthesia (60 mg/kg intraperitoneally (ip)) by autoblood administration into the brain internal capsule (stereotactic coordinates of the projection: H=7.0 mm, L=3.0 mm, A=1.5 mm from bregma) ([…]) (Method for reproduction of intracerebral hemorrhage in rats/O. K. Yarosh, S. V. Kyrychenko, S. P. Halimonchyk [et al.]//Circulation and hemostasis.-2005.-No. 1.-P. 77-81). The chosen model allows to reproduce clinical pattern of […] and is adequate for clinical study of potential neuroprotective agents.
As comparators the following drugs were used: mexydol (“Mexydol” UC Pharmasoft, Russia), 100 mg/kg; citicoline (“Somazina” Ferrer International, SA, Spain), 250 mg/kg; aktovegin (“Aktovegin”, Nycomed, Austria), 16 mg/kg pyracetam (“Pyracetam” Darnitsa, Ukraine), 400 mg/kg. According to the latest clinical guidelines regarding the treatment of patients with CVA approved by the Ministry of Health of Ukraine (Order No. 602 dated 3 Aug. 2012), all these drugs are allowed to be included into schemes for intensive patients therapy with CVA as neuroprotective agents. They were used at recommended doses for preclinical studies (McGrow C. P. Experimental Cerebral Infarction Effects of Pentobarbital in Mongolian Gerbils/C. P. McGrow//Arch. Neurol.-1977.-Vol. 34, No. 6.-P. 334-336). Experimental therapy of acute cerebral ischemia with SI-86 compound and comparator started 1 hour after IUD once a day for 21 days. The SI-86 derivative was investigated in conventionally effective dose of 10 mg/kg […] (iv)-dose that according to the results of our previous study provides maximum antihypoxic activity of SI-86 compound. Reference drugs were injected intraperitoneally (ip). Rats of control pathology group were injected by autoblood and as therapy 0.9% NaCI solution was administered calculated for 2 ml/kg […].
Neurological deficit in animals with acute CVA respectively in acute (4th day) and recovery (21 st day) periods was measured on C. P. McGrow stroke-index scale. The state severity was determined by amount of relevant points: to 3 points-mild, 3 to 7 points-average, above 7 points-severe degree. Pareses, paralyses of limbs, tremors, circus movement, ptoses, lateral positions, ability of rats to be maintained at the core of 15 cm diameter, rotating at the rate of 3 rpm were noted. The animals were tested daily by displaying the amount of points:
one-sided semi-ptosis—0.5 points; one-sided ptosis—1 point; tremor—0.5 points; circus movements—0.5 points; pareses of limbs (for each limb)—1 point; paralyses of limbs (for each limb)—2 points; lateral position—3 points; disability to maintain on rotating rod during 4 minutes—3 points.

[2] = test system: neuron-specific enolase (NSE); assay: Neuron-specific enolase (NSE) activity in rats with bilateral carotid occlusion (ELISA); conditions: BCO; for NSE activity (dynamics of neurodestructive changes): n = 7
Protocol: The derivative of 3,2′-spiro-pyrrolo-2-oxindole was studied in conventionally effective dose of 10 mg/kg […] (iv)—dose that by the results of our previous study provided maximum antihypoxic activity of the SI-86compound. Reference drugs were injected intraperitoneally (ip). […] BCO was made to rats of control pathology and as therapy 0.9% NaCI solution was administered calculated for 2 ml/kg ip.
Pseudooperative rats were exposed to all interventions (anesthesia, skin incision, dissection of vessels) except arteries ligation that leveled traumatic effect of experimental conditions.
To determine neurospecific enolase, specific marker of cerebral ischemia,—to the period (4 th and 21 st day of CVA) in rat's blood was sampled by sagittal sinus puncture (0.2-0.4 ml). NSE activity was measured by ELISA using a set NSE EIA KIT (DAI, USA) on the instrument of the company “Hipson” (Czech Republic).

[3] = test system: liver and pancrea cells; assay: Pro/antiapoptosis properties, electrophoresis of DNA fragments; conditions: intact male Wistar rats; 50 mg/kg
Protocol: The assessment of pro/antiapoptotosis properties of substances was carried in intact male rats of Wistar line. The test substance were administered for 2 weeks by means of a probe in aqueous suspension containing Tween-80 at a dose of 50 mg/kg of body weight. The animals were euthanized by cervical vertebrae translocation 24 hours after the experiment. The identification of apoptosis of liver and pancrea cells was performed using electrophoretic method. […] Cell necrosis conditioned the “smeared” nature of DNA migration zone. The luminescence band of intact DNA was in the starting area.
The expression of apoptosis manifestations was assessed by registration of DNA fragments via electrophoresis.

CSCC[C@@H]1N[C@@]2(C(=O)Nc3ccccc32)[C@@H]2C(=O)N(c3ccc(C)cc3)C(=O)[C@H]12 [SI-86, 5′-(4-Methylphenyl)-3′-[2-(methylthio)ethyl]-3a′,6a′-dihydro-2′H-spiro[indole-3,1′-pyrrolo[3,4-c]pyrrol]-2,4′,6′(1H,3′H,5′H)-trione]
neurological deficit, average point under C. P. McGrow scale ([1]; day 4, SI-86 10 mg/kg iv, mexydol 100, citocoline 250, actovegin 16, pyracetam 400 mg/kg ip): 4.1 points and 4.10 ± 0.32°*^#•$ points | neurological deficit, average point under C. P. McGrow scale ([1]; day 21, same doses): 3.1 points and 3.10 ± 0.33°*^#&$ points | enzyme activity decreased in relation to the control pathology group ([2]; 96 hours): 2.03 times | enzyme activity decreased in relation to the control pathology group ([2]; 21 days): 3.84 times | effectiveness in reducing NSE better than citocoline ([2]; acute period): 1.6 times | NSE activity (dynamics of neurodestructive changes) ([2]; day 4, SI-86 10 mg/kg iv, citocoline 250 mg/kg ip): 0.61 ± 0.004*^#• | NSE activity (dynamics of neurodestructive changes) ([2]; day 21, same doses): 0.204 ± 0.015*^#• | effectiveness in reducing NSE better than citocoline ([2]; recovery period): 1.9 times | level of apoptosis [3]: closed to that of control group
